Measurements as given in patent US20230125964A1, “Methods for high throughput cryopreservation of cell clusters” (Regents of the University of Minnesota, priority 2021, published 2023).

Tests used:
SC-beta islets = details: individual components and mixtures at same total concentration (44%), FIG. 3C
Method: The full-strength CPA used was 22 wt % EG+22 wt % DMSO prepared in RPMI medium. To load the CPA, islets were first incubated in 20% CPA (i.e., 4.4 wt % EG+4.4 wt % DMSO) for 10 min at 21° C., followed by 50% CPA for 10 min at 4° C. and in 100% CPA for 10 min at 4° C. The islets suspension was then transferred to the cryomesh placed on a wicking material (i.e., paper towel). The CPA cocktail was wicked away through the nylon mesh and islets remained on the cryomesh. Clumping of islets was avoided. The cryomesh was quickly plunged into liquid nitrogen and stored in a liquid nitrogen tank. […]
Quantitative viability was measured on dissociated islet cells. […] After 15 seconds of incubation, 10 μL of the suspension was pipetted onto the Countess Cell Counting Chamber Slides (Thermo Fischer Scientific; Cat #C10228), and viability was quantified using a Countess II FL cell counter (Invitrogen by Thermo Fisher Scientific; Cat #AMQAF1000).
To optimize the CPA formulation, three overall CPA concentrations (33%, 44%, and 54%) were tested consisting of PG, EG, DMSO, or mixtures thereof. Qualitative and quantitative live/dead staining was used to measure SC-beta islet viability for each CPA after loading and unloading (FIG. 2F) and after VR. Qualitative measurements were determined by confocal imaging of intact islets after staining with acridine orange (AO) and propidium iodide (PI). […]

[1] = cited from earlier work

Row | Structure (SMILES) | islet toxicity after CPA loading and unloading (SC-beta islets) | Transport: share achieving normoglycemia ([1]; canine islets to mice) [%] | Transport: time to normoglycemia ([1]; literature studies)
1 | OCCO [EG, ethylene glycol] | least islet toxicity of the three individual components |  | 
2 | C[S+](C)[O-] [DMSO, dimethyl sulfoxide] |  | 62 | in 4 days
